The target in assay [1] is recombinant human Mcl-1 (residues 171-327) / Bim interaction (Homo sapiens (Human), UniProt Q07820). The experiment in a line: biochemical. In kind it is binding. Conditions: read-out: Mcl-1 HTRF IC50. (In general: Time-resolved FRET reads energy transfer from a long-lived donor to a nearby acceptor.)
In assay [2] the test system is human multiple myeloma cell line, OPM-2. The experiment in a line: Cell viability assay (OPM-2 10 FBS), CellTiter-Glo. It is filed as cell-based. The essentials: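 OPM-2 cells at 3000 cells/well in RPMI 1640 with 10% FBS were exposed to serially diluted compounds for 16 h at 37 °C, 5% CO2.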
Setting [3] is: TR-FRET, Mcl-1(171-327) / biotin-Bim (51-76).
Where [4] appears, read: Homo sapiens, OPM-2, 16 h, read-out: OPM-2 10% FBS IC50 IP, OPM-2 cells, 10% FBS, 16 h, CellTiter-Glo.
Setting [5] is: read-out: OPM-2 10% FBS IC50 IP, OPM-2 cells, 10% FBS, 16 h, CellTiter-Glo.
Where [6] appears, read: 0.1 nM Mcl-1(171-327), 0.05 nM biotin-Bim (51-76).

One may read the IC50 as the concentration that gives 50% inhibition.

The structures appear in SMILES notation. Like-named read-outs stand apart in the source and are kept apart here.

Sequence of recombinant human Mcl-1 (residues 171-327) / Bim interaction (Q07820 171-327): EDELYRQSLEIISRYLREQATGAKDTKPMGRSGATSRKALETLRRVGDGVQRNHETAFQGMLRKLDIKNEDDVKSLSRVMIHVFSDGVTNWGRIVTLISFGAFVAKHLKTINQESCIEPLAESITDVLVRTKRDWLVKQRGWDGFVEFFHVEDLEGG

In the case of `CC[C@]1(O)/C=C/C[C@H](C)[C@@H](C)S(=O)(=O)NC(=O)c2ccc3c(c2)N(C[C@@H]2CC[C@H]21)C[C@@]1(CCCc2cc(Cl)ccc21)CO3` [Example 100207, (1S,3′R,6′R,7′S,8′E,11′S,12′R)-6-chloro-7′-ethyl-7′-hydroxy-11′,12′-dimethyl-3,4-dihydro-2H,15′H-spiro[naphthalene-1,22′-[20]oxa[13]thia[1,14]diazatetracyclo [14.7.2.0~3,6~.0~19,24~]pentacosa[8,16,18,24]tetraen]-15′-one 13′,13′-dioxide], the results for the 50% inhibitory concentration (IC50) in assay [1] (setting [3]) and in assay [2] (setting [4]) were 0.141 nM and 215 nM, respectively.

For the compound `CC[C@@H]1CC/C=C/[C@](O)(C(F)(F)F)[C@@H]2CC[C@H]2CN2C[C@@]3(CCCc4cc(Cl)ccc43)COc3ccc(cc32)C(=O)NS1(=O)=O` [Example 100047, (1S,3′R,6′R,7′R,8′E,12′R)-6-chloro-12′-ethyl-7′-hydroxy-7′-(trifluoromethyl)-3,4-dihydro-2H,15′H-spiro[naphthalene-1,22′-[20]oxa[13]thia[1,14]diazatetracyclo [14.7.2.0~3,6~.0~19,24~]pentacosa[8,16,18,24]tetraen]-15′-one 13′,13′-dioxide], the 50% inhibitory concentration (IC50) in assay [1] (setting [3]) worked out at 5.15 nM; in assay [2] (setting [5]), 2540 nM.

In the case of `C[C@@H]1[C@@H](C)C/C=C/[C@@](O)([C@@H](C)C(=O)N(C)C)[C@@H]2CC[C@H]2CN2C[C@@]3(CCCc4cc(Cl)ccc43)COc3ccc(cc32)C(=O)NS1(=O)=O` (single isomer, unassigned) [Example 100124], the IC50 in assay [1] (setting [3]) came to 0.323 nM; in assay [2] (setting [5]), 270 nM.

As to `CO[C@]1(CN2CCN3CCCC[C@@H]3C2)/C=C/C[C@H](C)[C@@H](C[C@H](C)O)S(=O)(=O)NC(=O)c2ccc3c(c2)N(C[C@@H]2CC[C@H]21)C[C@@]1(CCCc2cc(Cl)ccc21)CO3` (single isomer, unassigned) [Example 362], the half-inhibitory concentration (IC50) in assay [1] (setting [6]) was 0.061 nM; in assay [2] (read-out: OPM-2 10% FBS IC50 IP, OPM-2 cells, 10% FBS, 16 h incubation), 58 nM.

As to `CO[C@@]1(CN2CCN(c3nccs3)CC2)/C=C/C[C@H](C)[C@@H](C)S(=O)(=O)NC(=O)c2ccc3c(c2)N(C[C@@H]2CC[C@H]21)C[C@@]1(CCCc2cc(Cl)ccc21)CO3` [Example 255, (1S,3′R,6′R,7′S,8′E,11′S,12′R)-6-chloro-7′-methoxy-11′,12′-dimethyl-7′-((4-(1,3-thiazol-2-yl)-1-piperazinyl)methyl)-3,4-dihydro-2H,15′H-spiro[naphthalene-1,22′-[20]oxa[13]thia[1,14]diazatetracyclo [14.7.2.0~3,6~.0~19,24~]pentacosa[8,16,18,24]tetraen]-15′-one 13′,13′-dioxide], the IC50 in assay [1] (setting [6]) worked out at 1.74 nM; in assay [2] (Homo sapiens, OPM-2, 16 h, read-out: OPM-2 10% FBS IC50 IP, OPM-2 cells, 10% FBS, 16 h incubation) it was 1480 nM.

In the case of `COC(OC)c1cncc([C@@]2(O)/C=C/C[C@H](C)[C@@H](C)S(=O)(=O)NC(=O)c3ccc4c(c3)N(C[C@@H]3CC[C@H]32)C[C@@]2(CCCc3cc(Cl)ccc32)CO4)c1` (single isomer, unassigned) [Example 100507], the values for the 50% inhibitory concentration (IC50) in assay [1] (setting [3]) and in assay [2] (setting [4]) were 0.43 nM and 490 nM, respectively.

Consider `CO[C@@]1(CC=C(C)C)/C=C/C[C@H](C)[C@@H](C)S(=O)(=O)NC(=O)c2ccc3c(c2)N(C[C@@H]2CC[C@H]21)C[C@@]1(CCCc2cc(Cl)ccc21)CO3` [Example 100447, (1S,3′R,6′R,7′S,8′E,11′S,12′R)-6-chloro-7′-methoxy-11′,12′-dimethyl-7′-(3-methyl-2-buten-1-yl)-3,4-dihydro-2H,15′H-spiro[naphthalene-1,22′-[20]oxa[13]thia[1,14]diazatetracyclo [14.7.2.0~3,6~.0~19,24~]pentacosa[8,16,18,24]tetraen]-15′-one 13′,13′-dioxide], for which the IC50 in assay [1] (setting [3]) amounted to 0.05 nM; in assay [2] (setting [4]) it was 184 nM.

On to `C[C@H](C(=O)O)[C@@]1(O)/C=C/C[C@H](C)[C@@H](C)S(=O)(=O)NC(=O)c2ccc3c(c2)N(C[C@@H]2CC[C@H]21)C[C@@]1(CCCc2cc(Cl)ccc21)CO3` (single isomer, unassigned) [Example 100121], for which the IC50 in assay [1] (setting [3]) worked out at 0.056 nM; in assay [2] (setting [5]), 2530 nM.

As for `C[C@@H]1[C@@H](C)CCC[C@](O)(C2CCN(C)CC2)[C@@H]2CC[C@H]2CN2C[C@@]3(CCCc4cc(Cl)ccc43)COc3ccc(cc32)C(=O)NS1(=O)=O` [Example 100387, (1S,3′R,6′R,7′S,11′S,12′R)-6-chloro-7′-hydroxy-11′,12′-dimethyl-7′-(1-methyl-4-piperidinyl)-3,4-dihydro-2H,15′H-spiro[naphthalene-1,22′-[20]oxa[13]thia[1,14]diazatetracyclo [14.7.2.0~3,6~.0~19,24~]pentacosa[16,18,24]trien]-15′-one 13′,13′-dioxide], the figures for the 50% inhibitory concentration (IC50) in assay [1] (setting [3]) and in assay [2] (setting [4]) were 0.175 nM and 3760 nM, respectively.

Take `C[C@@H]1[C@@H](C)CCC[C@]2(CC(N3CCN(C)CC3)=NO2)[C@@H]2CC[C@H]2CN2C[C@@]3(CCCc4cc(Cl)ccc43)COc3ccc(cc32)C(=O)NS1(=O)=O` [Example 100216, (1S,3′R,6′R,7′S,11′S,12′R)-6-chloro-11′,12′-dimethyl-3″-(4-methyl-1-piperazinyl)-3,4-dihydro-2H,4″H,15′H-dispiro[naphthalene-1,22′-[20]oxa[13]thia[1,14]diazatetracyclo [14.7.2.0~3,6~.0~19,24~]pentacosa[16,18,24]triene-7′,5″-[1,2]oxazol]-15′-one 13′,13′-dioxide]: the results for the IC50 in assay [1] (setting [3]) and in assay [2] (setting [4]) were 0.311 nM and 374 nM, respectively.

`CO[C@@]1(Cc2nc(CO)c(C)o2)/C=C/C[C@H](C)[C@@H](C)S(=O)(=O)NC(=O)c2ccc3c(c2)N(C[C@@H]2CC[C@H]21)C[C@@]1(CCCc2cc(Cl)ccc21)CO3` [Example 100584, (1S,3′R,6′R,7′S,8′E,11′S,12′R)-6-chloro-7′-((4-(hydroxymethyl)-5-methyl-1,3-oxazol-2-yl)methyl)-7′-methoxy-11′,12′-dimethyl-3,4-dihydro-2H,15′H-spiro[naphthalene-1,22′-[20]oxa[13]thia[1,14]diazatetracyclo [14.7.2.0~3,6~.0~19,24~]pentacosa[8,16,18,24]tetraen]-15′-one 13′,13′-dioxide]: the IC50 was determined as 0.139 nM in assay [1] (setting [3]) and 349 nM in assay [2] (setting [4]).

With `CCC[C@]1(OC)/C=C/C[C@H](C)[C@@H](C)S(=O)(=O)NC(=O)c2ccc3c(c2)N(C[C@@H]2CC[C@H]21)C[C@@]1(CCCc2cc(Cl)ccc21)CO3` [Example 100236, (1S,3′R,6′R,7′S,8′E,11′S,12′R)-6-chloro-7′-methoxy-11′,12′-dimethyl-7′-propyl-3,4-dihydro-2H,15′H-spiro[naphthalene-1,22′-[20]oxa[13]thia[1,14]diazatetracyclo [14.7.2.0~3,6~.0~19,24~]pentacosa[8,16,18,24]tetraen]-15′-one 13′,13′-dioxide], the IC50 worked out at 1.1 nM in assay [1] (setting [3]) and 933 nM in assay [2] (setting [4]).

On to `C[C@@H]1[C@@H](C)C/C=C/[C@](C)(OCCN2CC(F)(F)C2)[C@@H]2CC[C@H]2CN2C[C@@]3(CCCc4cc(Cl)ccc43)COc3ccc(cc32)C(=O)NS1(=O)=O` [Example 100484, (1S,3′R,6′R,7′S,8′E,11′S,12′R)-6-chloro-7′-(2-(3,3-difluoro-1-azetidinyl)ethoxy)-7′,11′,12′-trimethyl-3,4-dihydro-2H,15′H-spiro[naphthalene-1,22′-[20]oxa[13]thia[1,14]diazatetracyclo [14.7.2.0~3,6~.0~19,24~]pentacosa[8,16,18,24]tetraen]-15′-one 13′,13′-dioxide], for which the IC50 in assay [1] (setting [3]) is 3.85 nM; in assay [2] (setting [4]), 3370 nM.

The values above are taken from patent publication US10821115B2, “Compounds that inhibit Mcl-1 protein” (priority 2017, dated 2020).
